Measured values: patent publication US20250049798A1, “WEE1 PROTEIN KINASE DEGRADATION AGENT AND USE THEREOF” (HANGZHOU GLUBIO PHARMACEUTICAL CO. LTD., priority 2021, published 2025)
Where two headings read alike, the source gives them in different places.

Columns and labels:
HiBiT tagged Wee1 = HiBiT tagged Wee1 (Homo sapiens, UniProt P30291); test: Wee1 protein degradation assay (HiBiT assay); type: cell-based; conditions: engineered HT-1080 cells, 20 hours; for Dmax: maximum percentage of Wee1 degradation, read-out: HiBiT Wee1: Dmax
NCI-H1048 cells = test: NCI-H1048 cell proliferation assay (CTG assay); type: cell-based; conditions: Homo sapiens, 120 hours, read-out: CTG cellular assay_H1048: IC50
Summary of the method: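 NCI-H1048 small cell lung cancer cells (RPMI-1640, 10% FBS) were exposed to 10-point half-log compound dilutions from 10 μM to 0.316 nM for 120 h at 37° C., 5% CO2. Viability was read by CellTiter-Glo luminescence and normalized to DMSO as percent of control. EC50 and DC50 were fitted with a four-parameter logistic model.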

[1] = Pharmacokinetic study in mice (IV and PO); type: in vivo; conditions: male CD1 mice; for F: PO (10 mg/kg) vs IV (2 mg/kg); for AUC(0-inf) / clearance / half-life / Cmax: mouse, plasma; for half-life: read-out: T½ (converted)
Method: Objective: the objective of this study was to determine the pharmacokinetics of test compound following intravenous (IV) and oral (PO) administration to male CD1 mice.
Materials: Male CD1 mouse (20-30 g, 6-8 weeks, Zhejiang Vital River Laboratory Animal Technology Co., Ltd.).
The CD1 mice were administered with the test article intravenously via tail vein at 2 mg/kg or orally at 10 mg/kg. The animals had free access to food and water. After dose administration, blood was collected from the dorsal metatarsal vein at 5 min (0.0833 h, IV only), 15 min (0.25 h), 30 min (0.5 h), 60 min (1 h), 2 h, 4 h, 6 h, 8 h and 24 h. Blood samples were placed in an anticoagulant tube with EDTA-K2, mixed adequately and centrifuged at 4° C., 4000 g for 5 minutes to get the plasma. The plasma samples were stored at −75±15° C. until analyzed by LC-MS/MS. The PK parameters were calculated using non-compartmental model by Phoenix WinNonlin 6.1 (Linear/log trapezoidal).

Sequence of HiBiT tagged Wee1 (P30291 whole entry): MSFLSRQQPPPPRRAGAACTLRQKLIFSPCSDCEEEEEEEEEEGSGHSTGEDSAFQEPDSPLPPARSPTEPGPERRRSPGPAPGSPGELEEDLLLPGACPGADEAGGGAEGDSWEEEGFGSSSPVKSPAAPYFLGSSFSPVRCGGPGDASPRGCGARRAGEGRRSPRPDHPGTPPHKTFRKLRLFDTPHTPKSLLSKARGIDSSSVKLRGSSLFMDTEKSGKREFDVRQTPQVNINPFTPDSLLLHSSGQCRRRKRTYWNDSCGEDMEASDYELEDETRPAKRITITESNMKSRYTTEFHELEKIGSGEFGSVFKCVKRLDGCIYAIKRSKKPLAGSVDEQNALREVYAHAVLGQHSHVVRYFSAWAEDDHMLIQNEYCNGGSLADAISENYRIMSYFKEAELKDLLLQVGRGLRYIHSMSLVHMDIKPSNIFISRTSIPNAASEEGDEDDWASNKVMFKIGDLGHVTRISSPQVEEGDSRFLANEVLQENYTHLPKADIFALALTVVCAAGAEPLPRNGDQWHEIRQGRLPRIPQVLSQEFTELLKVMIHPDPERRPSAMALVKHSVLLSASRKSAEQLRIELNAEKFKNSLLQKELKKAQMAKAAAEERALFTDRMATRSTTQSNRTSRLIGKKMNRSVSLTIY

SMILES | DC50 (HiBiT tagged Wee1) [nM] | Dmax (HiBiT tagged Wee1) [%] | IC50 (NCI-H1048 cells) [nM] | also measured
C=CCn1c(=O)c2cnc(Nc3ccc(N4CCC(CN5CCN(c6ccc(NC7CCC(=O)NC7=O)cc6F)CC5)CC4)cc3)nc2n1-c1cccc(C(C)(C)O)n1 (stereo not drawn) [Compound 71] | < 100 | > 75 | ≤ 25 | F [1]: 75.4%; AUC(0-inf) ([1]; IV (2 mg/kg)): 6730 ng·h/mL; clearance ([1]; IV (2 mg/kg)): 4.95 mL/min/kg; half-life ([1]; IV (2 mg/kg)): 2.79 h; AUC(0-inf) ([1]; PO (10 mg/kg)): 25400 ng·h/mL; Cmax ([1]; PO (10 mg/kg)): 2730 ng/mL; half-life ([1]; PO (10 mg/kg)): 3 h
C=CCn1c(=O)c2cnc(Nc3ccc(N4CCC(CN5CCC(c6ccc(NC7CCC(=O)NC7=O)cc6)CC5)CC4)cc3)nc2n1-c1cccc(C(C)(C)O)n1 (stereo not drawn) [Compound 72] | < 100 | > 75 | ≤ 25 | F [1]: 80.2%; AUC(0-inf) ([1]; IV (2 mg/kg)): 1130 ng·h/mL; clearance ([1]; IV (2 mg/kg)): 29.5 mL/min/kg; half-life ([1]; IV (2 mg/kg)): 2.81 h; AUC(0-inf) ([1]; PO (10 mg/kg)): 4530 ng·h/mL; Cmax ([1]; PO (10 mg/kg)): 550 ng/mL; half-life ([1]; PO (10 mg/kg)): 2.85 h
C=CCn1c(=O)c2cnc(Nc3ccc(N4CCC(N5CC6(CN(c7ccc(NC8CCC(=O)NC8=O)cc7F)C6)C5)CC4)cc3)nc2n1-c1cccc(C(C)(C)O)n1 (stereo not drawn) [Compound 123] | < 100 | > 75 | ≤ 25 | 
C=CCn1c(=O)c2cnc(Nc3ccc(N4CCN(CC5CCN(c6ccc(NC7CCC(=O)NC7=O)cc6F)CC5)CC4)c(F)c3)nc2n1-c1cccc(C(C)(C)O)n1 (stereo not drawn) [Compound 125] | < 100 | > 75 | 25 to 100 | 
C=CCn1c(=O)c2cnc(Nc3ccc(N4CCN(CC5CCN(c6ccc7c(N8CCC(=O)NC8=O)nn(C)c7c6)CC5)CC4)c(C)c3)nc2n1-c1ccc2c(n1)[C@@](O)(CC)CC2 [Compound 129] | < 100 | 50 to 75 | ≤ 25 | 
C=CCn1c(=O)c2cnc(Nc3ccc(N4CCN(CC5CCN(c6ccc7c(N8CCC(=O)NC8=O)nn(C)c7c6)CC5)CC4)c(C)c3)nc2n1-c1ccc2c(n1)[C@](C)(O)CC2 [Compound 137] | < 100 | > 75 | ≤ 25 | 
C=CCn1c(=O)c2cnc(Nc3ccc(N4CCC(CN5CCN(c6cccc7c(C8CCC(=O)NC8=O)nn(C)c67)CC5)CC4)cc3)nc2n1-c1cccc(C(C)(C)O)n1 (stereo not drawn) [Compound 144] | < 100 | > 75 | ≤ 25 | 
C=CCn1c(=O)c2cnc(Nc3ccc(N4CCC(N5CC6(CN(c7ccc(NC8CCC(=O)NC8=O)cc7F)C6)C5)CC4)cc3)nc2n1-c1ccc2c(n1)[C@@](O)(CC)CC2 (stereo partly drawn) [Compound 156] | < 100 |  | ≤ 25 | 
C=CCn1c(=O)c2cnc(Nc3ccc(N4CCN(C5CCN(c6ccc(NC7CCC(=O)NC7=O)cc6F)CC5)CC4)cc3)nc2n1-c1ccc2c(n1)[C@@](O)(CC)CC2 (stereo partly drawn) [Compound 157] | < 100 |  | ≤ 25 | 
C=CCn1c(=O)c2cnc(Nc3ccc(N4CCN(CC5CCN(c6ccc(NC7CCC(=O)NC7=O)cc6F)CC5)CC4)cc3)nc2n1-c1ccc(=O)n(C(C)C)n1 (stereo not drawn) [Compound 158] | < 100 | > 75 | ≤ 25 | 
C=CCn1c(=O)c2cnc(Nc3ccc(N4CCN(CC5CCN(c6cc7c(cc6F)c(N6CCC(=O)NC6=O)nn7C)CC5)CC4)cc3)nc2n1-c1ccc2c(n1)[C@@](O)(CC)CC2 [Compound 161] | < 100 | > 75 | ≤ 25 | 
C=CCn1c(=O)c2cnc(Nc3ccc(N4CCN(CC5CCN(c6ccc(NC7CCC(=O)NC7=O)cc6F)CC5)[C@@H](C)C4)cc3)nc2n1-c1ccc2c(n1)[C@@](O)(CC)CC2 (stereo partly drawn) [Compound 162] | < 100 | > 75 | ≤ 25 | 
C=CCn1c(=O)c2cnc(Nc3ccc(N4CCN(CC5CCN(c6ccc(NC7CCC(=O)NC7=O)cc6F)CC5)[C@H](C)C4)cc3)nc2n1-c1ccc2c(n1)[C@@](O)(CC)CC2 (stereo partly drawn) [Compound 163] | < 100 | > 75 | ≤ 25 | 
C=CCn1c(=O)c2cnc(Nc3ccc(N4CCN(CC5(F)CCN(c6ccc(NC7CCC(=O)NC7=O)cc6F)CC5)CC4)cc3)nc2n1-c1ccc2c(n1)[C@@](O)(CC)CC2 (stereo partly drawn) [Compound 166] | < 100 | > 75 | 25 to 100 | 
C=CCn1c(=O)c2cnc(Nc3ccc(N4CCN(C5CC6(C5)CN(c5ccc(NC7CCC(=O)NC7=O)cc5F)C6)CC4)cc3)nc2n1-c1ccc2c(n1)[C@@](O)(CC)CC2 (stereo partly drawn) [Compound 168] | < 100 | > 75 | ≤ 25 | 
C=CCn1c(=O)c2cnc(Nc3ccc(N4C[C@@H](C)N(CC5CCN(c6ccc(NC7CCC(=O)NC7=O)cc6F)CC5)[C@@H](C)C4)cc3)nc2n1-c1ccc2c(n1)[C@@](O)(CC)CC2 (stereo partly drawn) [Compound 169] | < 100 | > 75 | ≤ 25 | 

SMILES | DC50 (HiBiT tagged Wee1) [nM] | Dmax (HiBiT tagged Wee1) [%] | IC50 (NCI-H1048 cells) [nM] | also measured
C=CCn1c(=O)c2cnc(Nc3ccc(N4CC5(CC(N6CCN(c7ccc(NC8CCC(=O)NC8=O)cc7F)CC6)C5)C4)cc3)nc2n1-c1ccc2c(n1)[C@@](O)(CC)CC2 (stereo partly drawn) [Compound 173] | < 100 | > 75 | ≤ 25 | 
C=CCn1c(=O)c2cnc(Nc3ccc(N4CCN(CC5CCN(c6ccc7c(N8CCC(=O)NC8=O)nn(C)c7c6)CC5)[C@H](C)C4)cc3)nc2n1-c1ccc2c(n1)[C@@](O)(CC)CC2 [Compound 174] | < 100 | 50 to 75 | ≤ 25 | 
C=CCn1c(=O)c2cnc(Nc3ccc(N4CCN(CC5CCN(c6ccc(NC7CCC(=O)NC7=O)cc6Cl)CC5)CC4)cc3)nc2n1-c1ccc2c(n1)[C@@](O)(CC)CC2 (stereo partly drawn) [Compound 176] | < 100 | > 75 | ≤ 25 | 
C=CCn1c(=O)c2cnc(Nc3ccc(N4CC5(CCN(C6CN(c7ccc(NC8CCC(=O)NC8=O)cc7F)C6)CC5)C4)cc3)nc2n1-c1ccc2c(n1)[C@@](O)(CC)CC2 (stereo partly drawn) [Compound 179] | < 100 | > 75 | ≤ 25 | 
C=CCn1c(=O)c2cnc(Nc3ccc(N4CCN(CC5CCN(c6ncc(NC7CCC(=O)NC7=O)cc6F)CC5)CC4)cc3)nc2n1-c1ccc2c(n1)[C@@](O)(CC)CC2 (stereo partly drawn) [Compound 180] | < 100 | > 75 | ≤ 25 | 
C=CCn1c(=O)c2cnc(Nc3ccc(N4CCN(CC5CCN(c6ncc(NC7CCC(=O)NC7=O)cc6Cl)CC5)CC4)cc3)nc2n1-c1ccc2c(n1)[C@@](O)(CC)CC2 (stereo partly drawn) [Compound 181] | < 100 | > 75 | ≤ 25 | 
C=CCn1c(=O)c2cnc(Nc3ccc(N4CCN(C5CCN(c6ncc(NC7CCC(=O)NC7=O)cc6F)CC5)CC4)cc3)nc2n1-c1ccc2c(n1)[C@@](O)(CC)CC2 (stereo partly drawn) [Compound 182] | < 100 | > 75 | ≤ 25 | 
C=CCn1c(=O)c2cnc(Nc3ccc(N4CCN(C5CC6(C5)CN(c5ncc(NC7CCC(=O)NC7=O)cc5F)C6)CC4)cc3)nc2n1-c1ccc2c(n1)[C@@](O)(CC)CC2 (stereo partly drawn) [Compound 185] | < 100 | > 75 | ≤ 25 | 
C=CCn1c(=O)c2cnc(Nc3ccc(N4CCN(CC5CCN(c6ccc(NC7CCC(=O)NC7=O)cc6F)CC5)CC4)nc3)nc2n1-c1ccc2c(n1)[C@@](O)(CC)CC2 (stereo partly drawn) [Compound 187] | < 100 | > 75 | ≤ 25 | 
C=CCn1c(=O)c2cnc(Nc3ccc(N4CCN(CC5CCN(c6ncc(NC7CCC(=O)NC7=O)cc6F)CC5)[C@@H](C)C4)cc3)nc2n1-c1ccc2c(n1)[C@@](O)(CC)CC2 (stereo partly drawn) [Compound 192] | < 100 | > 75 | ≤ 25 | 
C=CCn1c(=O)c2cnc(Nc3ccc(N4CCN(CC5CCN(c6ncc(NC7CCC(=O)NC7=O)cc6F)CC5)[C@H](C)C4)cc3)nc2n1-c1ccc2c(n1)[C@@](O)(CC)CC2 (stereo partly drawn) [Compound 193] | < 100 | > 75 | ≤ 25 | 
C=CCn1c(=O)c2cnc(Nc3ccc(N4CCN(CC5CCN(c6cc7c(cc6F)c(N6CCC(=O)NC6=O)nn7C)CC5)CC4)nc3)nc2n1-c1ccc2c(n1)[C@@](O)(CC)CC2 [Compound 194] | < 100 | > 75 | ≤ 25 | 
C=CCn1c(=O)c2cnc(Nc3ccc(N4CCN(CC5CCN(c6cc7c(cc6F)c(N6CCC(=O)NC6=O)nn7C)CC5)CC4)cc3)nc2n1-c1ccc2c(n1)[C@](C)(O)CC2 [Compound 196] | < 100 | > 75 | ≤ 25 | 
C=CCn1c(=O)c2cnc(Nc3ccc(N4CCN(CC5CCN(c6cc7c(cc6F)c(N6CCC(=O)NC6=O)nn7C)CC5)CC4)nc3)nc2n1-c1ccc2c(n1)[C@](C)(O)CC2 [Compound 197] | < 100 | > 75 | ≤ 25 | 
CC(C)n1c(=O)c2cnc(Nc3ccc(N4CCN(CC5CCN(c6ccc(NC7CCC(=O)NC7=O)cc6F)CC5)CC4)cc3)nc2n1-c1cccc(C(C)(C)F)n1 (stereo not drawn) [Compound 199] | < 100 | > 75 | 25 to 100 | 
C=CCn1c(=O)c2cnc(Nc3ccc(N4CCN(CC5CCN(c6ccc7c(N8CCC(=O)NC8=O)nn(C)c7c6F)CC5)CC4)cc3)nc2n1-c1ccc2c(n1)[C@](C)(O)CC2 [Compound 200] | < 100 | > 75 | ≤ 25 | 
